Converted amounts (≈) assume the structure as drawn. Like-named read-outs stand apart in the source and are kept apart here.
Experiments:
VERO cells = experiment: cells; assay type: cell-based, African green monkey (Cercopithecus aethiops); conditions: Chlorocebus sabaeus
[1] = test system: Mycobacterium tuberculosis strain H37Rv; experiment: microplate alamar blue assay (MABA) MIC; assay type: cell-based; conditions: M. tuberculosis H37Rv, BACTEC 12B medium, MIC90 = 90% reduction in fluorescence relative to controls
Experimental: Screening was done to get MIC for M. tuberculosis using both the microplate alamar blue assay (MABA) and low-oxygen recovery assay (LORA).
The initial screen was conducted against Mycobacterium tuberculosis strain H37Rv (American Type Culture Collection number 27294) in BACTEC 12B medium (Becton-Dickinson) using the MABA. Compounds were tested in ten 2-fold dilutions, typically from 100 μg/mL to 0.19 μg/mL. The MIC90 is defined as the concentration effecting a reduction in fluorescence of 90% relative to controls. This value is determined from the dose-response curve using a curve-fitting program. Any MIC90 value of ≦10 μg/mL was considered “active” for antitubercular activity. 3(h) Method for Determining IC50

`C[C@]1(COc2ccccc2)Cn2cc([N+](=O)[O-])nc2O1` [Example 1, (R)-2-Methyl-6-nitro-2-(phenoxymethyl)-2,3-dihydroimidazo[2,1-b]oxazole] gave an IC50 (VERO cells; Vero, 72 h) of over 50 µg/mL and an MIC [1] of 1.33 µg/mL (≈ 4.83 µM).

Work on `C[C@]1(COc2ccc(I)cc2)Cn2cc([N+](=O)[O-])nc2O1` [Example 2, (R)-2-((4-Iodophenoxy)methyl)-2-methyl-6-nitro-2,3-dihydroimidazo[2,1-b]oxazole] yielded an IC50 (VERO cells; VERO cell cytotoxicity, 72 hours exposure, ATP viability readout, read-out: IC50) of over 50 µg/mL and an MIC [1] of under 0.195 µg/mL.
